Laboratory results reported in ChEMBL document CHEMBL1201862, “PubChem BioAssay data set” (2004).
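Values below derive from 48-hour exposures of cells grown in 96-well plates, with endpoints linearly interpolated between the two concentrations bracketing the appropriate inhibition level. Here, GI50 denotes the concentration required for 50% inhibition of growth.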 Activity calls are given as the source filed them. Cut-off read from the data, not from the text of the source: active = GI50 up to about 1.1 µM and inactive = higher.

Experiments:
Assay in all cases: NCI tumour cell line growth inhibition, 48 h
[1] = tested on: SN12C
[2] = tested on: SK-OV-3
[3] = tested on: HOP-62
[4] = tested on: NCI/ADR-RES
[5] = tested on: SF-295
[6] = tested on: IGROV-1
[7] = tested on: CCRF-CEM
[8] = tested on: HT-29
[9] = tested on: M14
[10] = tested on: HCT-116
[11] = tested on: A498
[12] = tested on: U-251
[13] = tested on: OVCAR-3
[14] = tested on: T47D
[15] = tested on: SW-620
[16] = tested on: LOX IMVI
[17] = tested on: SNB-75
[18] = tested on: SR
[19] = tested on: OVCAR-5
[20] = tested on: RXF 393

Measured: GI50

CN1CC2=C(N=C(S)NC2c2ccc(Cl)cc2)/C(=C/c2ccc(Cl)cc2)C1 (centres undefined)
inactive: [1] 17.2 µM | [2] 17.3 µM | [3] 19.2 µM | [4] 17.2 µM | [5] 17.6 µM | [6] 16.1 µM | [7] 13.5 µM | [8] 16.2 µM | [9] 18.3 µM | [10] 15.7 µM | [11] > 10 µM | [12] 17.2 µM | [13] 15.3 µM | [14] 15 µM | [15] 14.6 µM | [16] 16.1 µM | [17] 15.1 µM | [18] 15.6 µM | [19] 15.8 µM

CC12Cc3cc4c(cc3C1(c1ccc([N+](=O)[O-])cc1)OCCO2)OCO4 (centres undefined)
inactive: [1] 55.6 µM | [2] 16.8 µM | [3] 18.1 µM | [4] 95.5 µM | [5] 25.2 µM | [6] 23.1 µM | [7] > 100 µM | [20] 16.4 µM | [8] > 100 µM | [9] > 100 µM | [10] 65.3 µM | [11] > 100 µM | [12] 26.9 µM | [13] > 100 µM | [14] > 100 µM | [15] > 100 µM | [16] > 100 µM | [18] > 100 µM | [19] > 100 µM

Cc1ccc(C2SC(=N)Nc3c2c(C)nn3C(=O)c2ccc(Cl)cc2)cc1 (centres undefined)
inactive: [1] > 10 µM | [2] > 10 µM | [3] > 10 µM | [4] > 10 µM | [5] > 10 µM | [6] > 10 µM | [7] > 10 µM | [20] > 10 µM | [8] > 10 µM | [9] > 10 µM | [10] > 10 µM | [12] > 10 µM | [13] > 10 µM | [14] > 10 µM | [15] > 10 µM | [16] > 10 µM | [17] > 10 µM | [18] > 10 µM | [19] > 10 µM

COC(=O)[C@@]12CN(C)[C@@H](C(C)(C)C)N1C(=O)OC2c1ccccc1 (some centres undefined)
inactive: [1] > 100 µM | [2] > 100 µM | [3] > 100 µM | [4] > 100 µM | [5] > 100 µM | [6] > 100 µM | [7] > 100 µM | [20] > 100 µM | [8] > 100 µM | [9] > 100 µM | [12] > 100 µM | [13] > 100 µM | [14] > 100 µM | [15] > 100 µM | [16] > 100 µM | [17] > 100 µM | [18] > 100 µM | [19] > 100 µM

C/C(=C\CSCC(N)C(=O)O)CC/C=C(\C)CNc1ccccc1 (centres undefined)
inactive: [1] > 100 µM | [2] > 100 µM | [3] > 100 µM | [4] > 100 µM | [5] > 100 µM | [6] > 100 µM | [20] > 100 µM | [8] > 100 µM | [9] > 100 µM | [10] > 100 µM | [12] > 100 µM | [13] > 100 µM | [14] > 100 µM | [15] > 100 µM | [16] > 100 µM | [17] > 100 µM | [18] > 100 µM | [19] > 100 µM

Cc1c(C(=O)N2CCN(c3ccc([N+](=O)[O-])cc3)CC2)[n+]([O-])c2cc(Cl)c(Cl)cc2[n+]1[O-]
inactive: [1] 18.4 µM | [2] 15.9 µM | [3] 21.7 µM | [4] 16.8 µM | [5] 19.1 µM | [6] 22.2 µM | [7] > 100 µM | [20] 13.6 µM | [8] 25.2 µM | [9] 27.1 µM | [10] 19 µM | [11] 7.19 µM | [12] 20.9 µM | [13] 22.8 µM | [14] 17.1 µM | [15] 21.6 µM | [16] 29.9 µM | [18] 21.2 µM | [19] 21.6 µM

COC(=O)[C@H](C)[C@@H]1CC[C@](C)(CCC2=C(C)CCCC2(C)C)OO1
inactive: [1] > 25 µM | [2] > 25 µM | [3] > 25 µM | [4] > 25 µM | [5] > 25 µM | [6] > 25 µM | [7] 19.5 µM | [20] > 25 µM | [8] > 25 µM | [9] > 25 µM | [10] > 25 µM | [12] > 25 µM | [13] > 25 µM | [14] > 25 µM | [15] > 25 µM | [16] 8.02 µM | [17] > 25 µM | [18] > 25 µM | [19] > 25 µM

CCOC(=O)/C(C(=S)NC)=C(/N)N1CCCC1
inactive: [1] > 100 µM | [2] > 100 µM | [3] > 100 µM | [4] > 100 µM | [5] > 100 µM | [6] > 100 µM | [7] > 100 µM | [20] > 100 µM | [8] > 100 µM | [9] > 100 µM | [10] > 100 µM | [11] > 100 µM | [12] > 100 µM | [13] > 100 µM | [14] > 100 µM | [15] > 100 µM | [16] > 100 µM | [18] > 100 µM | [19] > 100 µM

O=S1OC[C@H](CCCl)O1 (some centres undefined)
inactive: [1] > 100 µM | [2] > 100 µM | [3] > 100 µM | [4] > 100 µM | [5] > 100 µM | [6] > 100 µM | [7] > 100 µM | [8] > 100 µM | [9] > 100 µM | [10] > 100 µM | [11] > 100 µM | [12] > 100 µM | [13] > 100 µM | [14] > 100 µM | [15] > 100 µM | [16] 83.6 µM | [17] > 100 µM | [18] > 100 µM | [19] > 100 µM

CC(C)OC(=O)C1(C(C)C)CCc2ccc(C(=O)CCC(=O)O)cc21 (centres undefined)
inactive: [1] > 100 µM | [2] > 100 µM | [3] > 100 µM | [4] > 100 µM | [5] > 100 µM | [6] > 100 µM | [7] > 100 µM | [20] > 100 µM | [8] > 100 µM | [9] > 100 µM | [10] > 100 µM | [12] > 100 µM | [14] > 100 µM | [15] > 100 µM | [16] > 100 µM | [17] > 100 µM | [18] > 100 µM | [19] > 100 µM

FC1(F)SC2CCCCCCCCCCC2C1(F)F (centres undefined)
inactive: [2] 61.7 µM | [3] 38.6 µM | [4] 63.4 µM | [5] 28.6 µM | [6] 76 µM | [7] 19.2 µM | [20] 20.7 µM | [8] 29.7 µM | [9] 39.7 µM | [10] 18.4 µM | [12] 28.5 µM | [13] 18.5 µM | [14] 30.9 µM | [16] 16.4 µM | [17] 30.6 µM | [18] 67.5 µM | [19] 47.5 µM
